Data as given in patent US9695155B2, “Herbicidal substituted pyrimidinyloxy benzene compounds” (E. I. DU PONT DE NEMOURS AND COMPANY, priority 2013, dated 2017).

What was measured:
[1] = test system: barnyardgrass; assay: Test A preemergence; type: in vivo, Echinochloa crus-galli
Summary of the method: (§1)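 Greenhouse pot test, loam/sand soil. Formulation: non-phytotoxic solvent mix plus surfactant. Pre: directed spray onto soil after sowing. Post: plants at 1–2 leaf, 2–10 cm. Rated visually vs untreated controls at ~10 d, 0 (no effect) to 100 (complete control).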

[2] = test system: large (Lg) crabgrass; assay: Test A preemergence; type: in vivo, Digitaria sanguinalis
Summary of the method: as §1

[3] = test system: giant foxtail; assay: Test A preemergence; type: in vivo, Setaria faberii
Summary of the method: as §1

[4] = test system: morningglory; assay: Test A preemergence; type: in vivo, Ipomoea spp.
Summary of the method: as §1

[5] = test system: pigweed; assay: Test A preemergence; type: in vivo, Amaranthus retroflexus
Summary of the method: as §1

[6] = test system: velvetleaf; assay: Test A preemergence; type: in vivo, Abutilon theophrasti
Summary of the method: as §1

[7] = test system: wheat; assay: Test A preemergence; type: in vivo, Triticum aestivum
Summary of the method: as §1

[8] = test system: corn; assay: Test A preemergence; type: in vivo, Zea mays
Summary of the method: as §1

[9] = test system: barnyardgrass; assay: Test A postemergence; type: in vivo, Echinochloa crus-galli
Summary of the method: as §1

[10] = test system: large (Lg) crabgrass; assay: Test A postemergence; type: in vivo, Digitaria sanguinalis
Summary of the method: as §1

[11] = test system: giant foxtail; assay: Test A postemergence; type: in vivo, Setaria faberii
Summary of the method: as §1

[12] = test system: morningglory; assay: Test A postemergence; type: in vivo, Ipomoea spp.
Summary of the method: as §1

[13] = test system: pigweed; assay: Test A postemergence; type: in vivo, Amaranthus retroflexus
Summary of the method: as §1

[14] = test system: velvetleaf; assay: Test A postemergence; type: in vivo, Abutilon theophrasti
Summary of the method: as §1

[15] = test system: wheat; assay: Test A postemergence; type: in vivo, Triticum aestivum
Summary of the method: as §1

[16] = test system: corn; assay: Test A postemergence; type: in vivo, Zea mays
Summary of the method: as §1

[17] = test system: rice; assay: Test B flooded paddy test; type: in vivo, Oryza sativa; conditions: Flood, 250 g ai/ha; 0 to 100 scale where 0 is no effect and 100 is complete control
Protocol: (§2) Plant species in the flooded paddy test selected from rice (Oryza sativa), sedge, umbrella (small-flower umbrella sedge, Cyperus difformis), (Heteranthera limosa), and barnyardgrass (Echinochloa crus-galli) were grown to the 2-leaf stage for testing. At time of treatment, test pots were flooded to 3 cm above the soil surface, treated by application of test compounds directly to the paddy water, and then maintained at that water depth for the duration of the test. Treated plants and controls were maintained in a greenhouse for 13 to 15 days, after which time all species were compared to controls and visually evaluated. Plant response ratings, summarized in Table B, are based on a scale of 0 to 100 where 0 is no effect and 100 is complete control. A dash (-) response means no test result.

[18] = test system: sedge, umbrella; assay: Test B flooded paddy test; type: in vivo, Cyperus difformis; conditions: Flood, 250 g ai/ha; 0 to 100 scale where 0 is no effect and 100 is complete control
Summary of the method: (§3)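 Greenhouse flooded-pot test: compounds dosed into 3 cm standing water over 2-leaf plants, flood held constant. Rated visually after 13–15 days on 0–100 (complete control = 100); a dash marks no test result.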

[19] = test system: Heteranthera limosa; assay: Test B flooded paddy test; type: in vivo; conditions: Flood, 250 g ai/ha; 0 to 100 scale where 0 is no effect and 100 is complete control
Summary of the method: as §3

[20] = test system: barnyardgrass; assay: Test B flooded paddy test; type: in vivo, Echinochloa crus-galli; conditions: Flood, 250 g ai/ha; 0 to 100 scale where 0 is no effect and 100 is complete control
Protocol: as §2

[21] = 1000 g ai/ha, 0 to 100 scale, 0 no effect, 100 complete control, approx. 10 days
[22] = 1000 g ai/ha, 0 to 100 scale, 0 no effect, 100 complete control
[23] = 500 g ai/ha, 0 to 100 scale where 0 is no effect and 100 is complete control
[24] = 125 g ai/ha, 0 to 100 scale, 0 no effect, 100 complete control
[25] = 125 g ai/ha, 0 to 100 scale where 0 is no effect and 100 is complete control
[26] = 500 g ai/ha, 0 to 100 scale, 0 no effect, 100 complete control, approx. 10 days
[27] = 500 g ai/ha, 0 to 100 scale, 0 no effect, 100 complete control

CC(=O)Oc1cccc(Oc2ncc(Cl)cn2)c1-n1cc(Cl)cn1 [Compound 216]
30: Barnyardgrass plant response rating [1, 21] | Velvetleaf plant response rating [6, 21] | Plant response rating, Foxtail, Giant [11, 22]
100: Pigweed plant response rating [5, 21] | Plant response rating, Pigweed [13, 22] | Plant response rating, Velvetleaf [14, 22]
0: Morningglory plant response rating [4, 21] | Wheat plant response rating [7, 21] | Corn plant response rating [8, 21] | Plant response rating, Barnyardgrass [9, 22] | Plant response rating, Wheat [15, 22] | Plant response rating, Corn [16, 22] | Plant response rating, Rice [17] | Plant response rating, Sedge, Umbrella [18] | Plant response rating, Ducksalad [19] | Plant response rating, Barnyardgrass [20]
40: Foxtail, Giant plant response rating [3, 21] | Plant response rating, Crabgrass, Large [10, 22] | Plant response rating, Morningglory [12, 22]
70: Crabgrass, Large plant response rating [2, 21]

C=C(C)c1cn(-c2c(Br)cccc2Oc2ncc(Cl)cn2)nn1 [Compound 114]
50: Plant response rating, Ducksalad [19]
60: Plant response rating, Wheat [15, 22]
70: Plant response rating, Corn [16, 22]
100: Plant response rating, Crabgrass, Large [2, 22] | Foxtail, Giant plant response rating [3, 21] | Pigweed plant response rating [5, 21] | Velvetleaf plant response rating [6, 21] | Plant response rating, Barnyardgrass [9, 22] | Plant response rating, Pigweed [13, 22] | Plant response rating, Velvetleaf [14, 22]
80: Plant response rating, Morningglory [12, 22]
20: Plant response rating, Corn [8, 22]
10: Morningglory plant response rating [4, 21]
30: Plant response rating, Sedge, Umbrella [18]
90: Plant response rating, Barnyardgrass [1, 22] | Plant response rating, Crabgrass, Large [10, 22] | Plant response rating, Foxtail, Giant [11, 22]
40: Wheat plant response rating [7, 21]
0: Plant response rating, Rice [17] | Plant response rating, Barnyardgrass [20]

Clc1cnc(Oc2cccc(-c3cnoc3)c2-n2cc(Br)cn2)nc1 [Compound 291]
0: Barnyardgrass plant response rating (0 to 100 scale, 0 is no effect, 100 is complete control) ([1]; 125 g ai/ha) | Morningglory plant response rating (0 to 100 scale) ([4]; 125 g ai/ha) | Morningglory plant response rating [4, 23] | Wheat plant response rating (0 to 100 scale) ([7]; 125 g ai/ha) | Wheat plant response rating [7, 23] | Corn plant response rating (0 to 100 scale) ([8]; 125 g ai/ha) | Corn plant response rating [8, 23] | Plant response rating, Barnyardgrass [9, 24] | Plant response rating, Foxtail, Giant [11, 24] | Plant response rating, Wheat [15, 24] | Plant response rating, Wheat [15, 23] | Plant response rating, Corn [16, 24] | Plant response rating, Rice [17] | Plant response rating, Sedge, Umbrella [18] | Plant response rating, Ducksalad [19] | Plant response rating, Barnyardgrass [20]
50: Barnyardgrass plant response rating [1, 23] | Crabgrass, Large plant response rating (0 to 100 scale) ([2]; 125 g ai/ha) | Plant response rating, Foxtail, Giant [11, 23] | Plant response rating, Velvetleaf [14, 24]
80: Foxtail, Giant plant response rating [3, 23]
60: Pigweed plant response rating (0 to 100 scale) ([5]; 125 g ai/ha) | Velvetleaf plant response rating [6, 23] | Plant response rating, Crabgrass, Large [10, 23] | Plant response rating, Velvetleaf [14, 23]
20: Foxtail, Giant plant response rating (0 to 100 scale) ([3]; 125 g ai/ha)
10: Plant response rating, Crabgrass, Large [10, 24] | Plant response rating, Corn [16, 23]
40: Velvetleaf plant response rating (0 to 100 scale) ([6]; 125 g ai/ha) | Plant response rating, Barnyardgrass [9, 23] | Plant response rating, Morningglory [12, 23]
70: Plant response rating, Pigweed [13, 23]
90: Crabgrass, Large plant response rating [2, 23] | Pigweed plant response rating [5, 23]
30: Plant response rating, Morningglory [12, 24] | Plant response rating, Pigweed [13, 24]

Clc1cnc(Oc2ccccc2-n2cc(-c3ccccc3)cn2)nc1 [Compound 22]
80: Plant response rating, Morningglory [12, 25] | Plant response rating, Sedge, Umbrella [18]
20: Barnyardgrass plant response rating [1, 26] | Plant response rating, Crabgrass, Large [2, 25] | Plant response rating, Foxtail, Giant [3, 25] | Plant response rating, Pigweed [5, 25] | Velvetleaf plant response rating [6, 26] | Plant response rating, Barnyardgrass [20]
50: Plant response rating, Barnyardgrass [9, 25] | Plant response rating, Pigweed [13, 25] | Plant response rating, Velvetleaf [14, 25]
30: Plant response rating, Crabgrass, Large [10, 25] | Plant response rating, Corn [16, 27]
90: Crabgrass, Large plant response rating [2, 26] | Foxtail, Giant plant response rating [3, 26] | Pigweed plant response rating [5, 26] | Plant response rating, Foxtail, Giant [11, 27] | Plant response rating, Morningglory [12, 27]
70: Plant response rating, Barnyardgrass [9, 27] | Plant response rating, Crabgrass, Large [10, 27]
0: Plant response rating, Barnyardgrass [1, 25] | Plant response rating, Morningglory [4, 25] | Morningglory plant response rating [4, 26] | Plant response rating, Velvetleaf [6, 25] | Plant response rating, Wheat [7, 25] | Wheat plant response rating [7, 26] | Plant response rating, Corn [8, 25] | Corn plant response rating [8, 26] | Plant response rating, Wheat [15, 25] | Plant response rating, Wheat [15, 27] | Plant response rating, Corn [16, 25]
40: Plant response rating, Foxtail, Giant [11, 25] | Plant response rating, Rice [17]
100: Plant response rating, Pigweed [13, 27] | Plant response rating, Velvetleaf [14, 27]
65: Plant response rating, Ducksalad [19]
